Experimental data reported in article PMC5581314, “Targeting the Type II Secretion System: Development, Optimization, and Validation of a High-Throughput Screen for the Identification of Small Molecule Inhibitors” (Frontiers in Cellular and Infection Microbiology, 2017).

These molecules were tested against T1, LipA (Acinetobacter baumannii, UniProt A0ABX6CKD6) (assay: 4-nitrophenyl myristate lipase assay; IC50 in whole culture, direct inhibition by cell-free supernatant counter-screen). Conditions: not given.
T1 construct: gene lip; secreted LipA from plasmid-encoded lipBA, in culture supernatant
Assay type: cell-based
Molecule `CCCCCCCCCCC[C@@H](C[C@@H]1OC(=O)[C@H]1CCCCCC)OC(=O)[C@H](CC(C)C)NC=O` [Orlistat] has an IC50 of 0.0406 µM. With `CNCCCN1c2ccccc2CCc2ccccc21` [Desiprimine] the IC50 was 16.5 µM.

Same assay, conditions: read-out: IC50
In the case of `CN(CCCN1c2ccccc2CCc2ccccc21)CC(=O)c1ccc(Cl)cc1` [Lofepramine], the IC50 is reported as 21 µM. For `CNCCC=C1c2ccccc2C=Cc2ccccc21` [Norcyclobenzaprine], the IC50 was 16 µM. Molecule `CNCCCC1c2ccccc2C=Cc2ccccc21` [Vivactil] has an IC50 of 10 µM. Work on `CNCCC=C1c2ccccc2CCc2ccccc21` [Aventyl] yielded an IC50 of 14.5 µM.
